{"source": "paper PMC11969009", "about": "(Nature Communications, 2025)", "system": "SARS-CoV-2 P2 strain", "parameters": "species or system C57BL/6 (WT) mice", "settings": "mouse, in vivo"}
{"compound": "CC(C)c1nc(CN(C)C(=O)N[C@H](C(=O)N[C@@H](Cc2ccccc2)C[C@H](O)[C@H](Cc2ccccc2)NC(=O)OCc2cncs2)C(C)C)cs1", "note": "[ritonavir, reference compound]", "values": [{"measurement": "antiviral activity (lung viral burden), mild model", "result": "no antiviral activity"}]}
